In US6589970B2, “6-(aryl-amido or aryl-amidomethyl)-naphthalen-2-yloxy-acidic derivatives as inhibitors of plasminogen activator inhibitor type-1 (PAI-1)” (Wyeth, priority 2001, dated 2003):
Counter-ions that a name gives are not always drawn.

Molecular target: T1, recombinant human plasminogen activator inhibitor-1 (PAI-1) (Homo sapiens, UniProt P05121)
T1 construct: purchased Molecular Innovations, Royal Oak, Mich
Test: Primary Screen for the PAI-1 Inhibition
Assay type: biochemical
Details: for % Inhib. 100 μM / inhibition at 100 µM: 100 μM test compound; for % Inhib. 25 μM / inhibition at 25 µM: 25 μM test compound; for inhibition at 25 µM: read-out: % Inhib. 25 μM; for inhibition at 100 µM: read-out: % Inhib. 100 μM
Experimental: Test compounds are dissolved in DMSO at a final concentration of 10 mM, then diluted 100× in physiologic buffer. The inhibitory assay is initiated by the addition of the test compound (1-100 μM final concentration, maximum DMSO concentration of 0.2%) in a pH 6.6 buffer containing 140 nM recombinant human plasminogen activator inhibitor-1 (PAI-1; Molecular Innovations, Royal Oak, Mich.). Following a 1 hour incubation at room temperature, 70 nM of recombinant human tissue plasminogen activator (tPA) is added, and the combination of the test compound, PAI-1 and tPA is incubated for an additional 30 minutes. Following the second incubation, Spectrozyme-tPA (American Diagnostica, Greenwich, Conn.), a chromogenic substrate for tPA, is added and absorbance read at 405 nm at 0 and 60 minutes. Relative PAI-1 inhibition is equal to the residual tPA activity in the presence of the test compound and PAI-1. Control treatments include the complete inhibition of tPA by PAI-1 at the molar ratio employed (2:1), and the absence of any effect of the test compound on tPA alone.

T1 sequence (P05121 24-402): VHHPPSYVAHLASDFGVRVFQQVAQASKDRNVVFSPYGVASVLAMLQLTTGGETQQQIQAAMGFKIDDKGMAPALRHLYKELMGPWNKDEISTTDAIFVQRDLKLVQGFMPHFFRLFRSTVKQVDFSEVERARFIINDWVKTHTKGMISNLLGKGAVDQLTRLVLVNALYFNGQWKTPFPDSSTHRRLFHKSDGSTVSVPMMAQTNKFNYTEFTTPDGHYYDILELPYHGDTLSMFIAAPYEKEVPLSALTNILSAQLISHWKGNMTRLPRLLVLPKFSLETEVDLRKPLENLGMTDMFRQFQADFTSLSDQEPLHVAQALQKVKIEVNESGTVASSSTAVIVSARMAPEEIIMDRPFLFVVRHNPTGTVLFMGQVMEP

Row | Compound | % Inhib. 100 μM [%] | % Inhib. 25 μM [%] | inhibition at 25 µM [%] | inhibition at 100 µM [%]
1 | O=C(O)COc1ccc2cc(CNC(=O)c3cc4ccccc4o3)ccc2c1 [Example 1] | 23 | – | – | –
2 | O=C(NCc1ccc2cc(OCc3nn[nH]n3)ccc2c1)c1cc2ccccc2o1 [Example 2] | 52 | 21 | – | –
3 | CCCCc1oc2ccccc2c1C(=O)Nc1ccc2cc(OCC(=O)O)ccc2c1 [Example 4, {6-[(2-Butyl-benzofuran-3-carbonyl)-amino]-naphthalen-2-yloxy}-acetic acid sodium salt] | – | – | 3 | 66
4 | O=C(O)COc1ccc2cc(CNC(=O)c3cc(-c4ccc(Cl)cc4)oc3C(F)(F)F)ccc2c1 [Example 11, [6-({[5-(4-Chloro-phenyl)-2-trifluoromethyl-furan-3-carbonyl]-amino}-methyl)-naphthalen-2-yloxy]-acetic acid] | – | – | – | 32
5 | CCCc1c(C(=O)NCc2ccc3cc(OCC(=O)O)ccc3c2)cnn1-c1ccccc1 [Example 12, (6-{[(1-phenyl-5-propyl-1H-pyrazole-4-carbonyl)-amino]-methyl}-naphthalen-2-yloxy)-acetic acid] | – | – | 5 | 66
6 | CCCc1c(C(=O)NCc2ccc3cc(OCC(=O)O)ccc3c2)cnn1-c1ccc(Cl)cc1 [Example 13, [6-({[1-(4-Chloro-phenyl)-5-propyl-1H-pyrazole-4-carbonyl]-amino}-methyl)-naphthalen-2-yloxy]-acetic acid] | – | – | 5 | 52
7 | CCCc1c(C(=O)NCc2ccc3c(Br)c(OCC(=O)O)ccc3c2)cnn1-c1ccccc1 [Example 15, (1-Bromo-6-{[(1-phenyl-5-propyl-1H-pyrazole-4-carbonyl)-amino]-methyl}-naphthalen-2-yloxy)-acetic acid] | – | – | 5 | 92
8 | O=C(O)COc1ccc2cc(CNC(=O)c3cnn(-c4ccc(Cl)cc4)c3C(F)(F)F)ccc2c1Br [Example 16, [1-Bromo-6-({[1-(4-chloro-phenyl)-5-trifluoromethyl-1H-pyrazole-4-carbonyl]-amino}-methyl)-naphthalen-2-yloxy]-acetic acid] | – | – | 12 | 85
9 | CCCCc1oc2ccccc2c1C(=O)NCc1ccc2c(Br)c(OCC(=O)O)ccc2c1 [Example 19, Sodium; (1-bromo-6-{[(2-butyl-benzofuran-3-carbonyl)-amino]-methyl}-naphthalen-2-yloxy)-acetate] | – | – | – | 32
10 | CCCCc1oc2ccccc2c1C(=O)N(CC)Cc1ccc2cc(OCc3nnn[nH]3)ccc2c1 [Example 35, 2-Butyl-benzofuran-3-carboxylic acid methyl-[6-(1H-tetrazol-5-ylmethoxy)-naphthalen-2ylmethyl]-methyl-amide] | – | – | 26 | 72
11 | CN(Cc1ccc2c(Br)c(OCc3nnn[nH]3)ccc2c1)C(=O)c1ccc(Oc2cc(Cl)cc(Cl)c2)o1 [Example 38, 5-(3,5-Dichloro-phenoxy)-furan-2-carboxylic acid [5-bromo-6-(1H-tetrazol-5-ylmethoxy)-naphthalen-2-ylmethyl]-methyl-amide] | – | – | 47 | 81
12 | CCCCc1c(C(=O)N(C)Cc2ccc3c(Br)c(OCC(Cc4ccccc4)C(=O)O)ccc3c2)oc2ccccc12 (stereo not shown) [Example 40, 2-Benzyl-3-(1-bromo-6-{[(3-butyl-benzofuran-2-carbonyl)-methyl-amino]-methyl}-naphthalen-2-yloxy)-propionic acid] | – | – | 60 | 96
13 | Cc1c(C(=O)N(C)Cc2ccc3c(Br)c(OCC(Cc4ccccc4)C(=O)O)ccc3c2)oc2ccccc12 (stereo not shown) [Example 42, Sodium; 2-benzyl-3-(1-bromo-6-{[methyl-(3-methyl-benzofuran-2-carbonyl)-amino]-methyl}-naphthalen-2-yloxy)-propionate] | – | – | 63 | 79
14 | CCc1oc2ccccc2c1C(=O)NCc1ccc2c(Br)c(OC(Cc3ccccc3)C(=O)O)ccc2c1 (stereo not shown) [Example 58, 2-(1-Bromo-6-{[(2-ethyl-benzofuran-3-carbonyl)-amino]-methyl}-naphthalen-2-yloxy)-3-phenyl-propionic acid] | – | – | – | 29
15 | O=C(O)C(Cc1ccccc1)Oc1ccc2cc(CNC(=O)C3(c4ccc(Cl)cc4)CCCC3)ccc2c1Br (stereo not shown) [Example 59] | 44 | – | – | –
16 | O=C(NCc1ccc2c(Br)c(OC(Cc3ccccc3)C(=O)O)ccc2c1)c1ccc(-c2cccc(C(F)(F)F)c2)o1 (stereo not shown) [Example 60] | 30 | – | – | –

Row | Compound | % Inhib. 100 μM [%] | % Inhib. 25 μM [%] | inhibition at 25 µM [%] | inhibition at 100 µM [%]
17 | CN(Cc1ccc2c(Br)c(OC(Cc3ccccc3)C(=O)O)ccc2c1)C(=O)c1ccc(C2CCCCC2)cc1 (stereo not shown) [Example 61, 2-(1-Bromo-6-{[(4cyclohexyl-benzoyl)-methyl-amino]-methyl}-naphthalen-2-yloxy)-3-phenyl-propionic acid] | – | – | 24 | 75
18 | CCCCc1oc2ccccc2c1C(=O)N(C)Cc1ccc2c(Br)c(OC(Cc3ccccc3)C(=O)O)ccc2c1 (stereo not shown) [Example 62, 2-(1-Bromo-6-{[(2-butyl-benzofuran-3-carbonyl)-methyl-amino]-methyl}naphthalen-2-yloxy)-3-phenyl-propionic acid] | – | – | 1 | 84
19 | CCCc1ccc(-c2ccc(C(=O)N(C)Cc3ccc4c(Br)c(OC(Cc5ccccc5)C(=O)O)ccc4c3)cc2)cc1 (stereo not shown) [Example 63, 2-(1-Bromo-6-{[methyl-(4′-propyl-biphenyl-4-carbonyl)-amino]-methyl}-naphthalen-2-yloxy)-3-phenyl-propionic acid] | – | – | 14 | 69
20 | CCCc1c(C(=O)N(C)Cc2ccc3c(Br)c(OC(Cc4ccccc4)C(=O)O)ccc3c2)cnn1-c1ccccc1 (stereo not shown) [Example 66, 2-(1-Bromo-6-{[methyl-(1-phenyl-5-propyl-1H-pyrazole-4-carbonyl)-amino]-methyl}-naphthalen-2-yloxy)-3-phenyl-propionic acid] | – | – | 46 | 95
21 | CCCc1ccc(-c2ccc(C(=O)N(Cc3ccccc3)Cc3ccc4c(Br)c(OC(Cc5ccccc5)C(=O)O)ccc4c3)cc2)cc1 (stereo not shown) [Example 70, 2-(6-{[Benzyl-(4′-propyl-biphenyl-4-carbonyl)-amino]-methyl}-1-bromo-naphthalen-2-yloxy)-3-phenyl propionic acid] | – | – | 17 | 81
22 | O=C(O)C(Cc1ccccc1)Oc1ccc2cc(CN(Cc3ccccc3)C(=O)c3ccc(C4CCCCC4)cc3)ccc2c1Br (stereo not shown) [Example 71] | 78 | 47 | – | –
23 | CCCc1c(C(=O)N(Cc2ccccc2)Cc2ccc3c(Br)c(OC(Cc4ccccc4)C(=O)O)ccc3c2)cnn1-c1ccccc1 (stereo not shown) [Example 72, 2-(6-{[Benzyl-(1-phenyl-5-propyl-1H-pyrozole-4-carbonyl)-amino]-methyl}-1-bromo-naphthalen-2-yloxy)-3-phenyl-propionic acid] | 68 | 56 | – | –
24 | O=C(O)COc1ccc2cc(NC(=O)c3cc(-c4ccccc4Cl)oc3C(F)(F)F)ccc2c1 [Example 73, (6-{[5-(2-Chloro-phenyl)-2-trifluoromethyl-furan-3-carbonyl]-amino}naphthalen-2-yloxy)-acetic acid] | – | – | 23 | 65
25 | O=C(O)COc1ccc2cc(NC(=O)c3ccc(-c4cccc(C(F)(F)F)c4)o3)ccc2c1 [Example 74, (6-{[5-(3-Trifluoromethyl-phenyl)-furan-2-carbonyl]-amino}-naphthalen-2-yloxy)-acetic acid] | – | – | 20 | 59
26 | O=C(O)COc1ccc2cc(NC(=O)C3(c4ccc(Cl)cc4)CCCC3)ccc2c1 [Example 75, (6-{[1-(4-Chloro-phenyl)-cyclopentanecarbonyl]-amino}-naphthalen-2-yloxy)-acetic acid] | – | – | 1 | 55
27 | O=C(O)COc1ccc2cc(NC(=O)c3ccccc3OCc3ccccc3)ccc2c1 [Example 76] | 54 | 0 | – | –
28 | CC(C)(C)c1cc(C(=O)Nc2ccc3cc(OCC(=O)O)ccc3c2)cc(C(C)(C)C)c1 [Example 77, [6-(3,5-Di-tert-butyl-benzoylamino)-naphthalen-2yloxy]-acetic acid] | – | – | 27 | 51
29 | O=C(O)COc1ccc2cc(NC(=O)c3cc(-c4ccc(-c5ccccc5)cc4)oc3C(F)(F)F)ccc2c1 [Example 78, {6-[(5-Biphenyl-4-yl-2-trifluoromethyl-furan-3-carbonyl)-amino]-naphthalen-2-yloxy}-acetic acid] | – | – | 24 | 51
30 | O=C(O)COc1ccc2cc(NC(=O)C3(c4ccc(Cl)cc4)CCCCC3)ccc2c1 [Example 79, (6-{[1-(4-Chloro-phenyl)-cyclohexanecarbonyl]-amino}-naphathalen-2-yloxy)-acetic acid] | 50 | 19 | – | –
31 | O=C(O)COc1ccc2cc(NC(=O)C3(c4ccc(Cl)cc4)CCC3)ccc2c1 [Example 80, (6-{[1-(4-Chloro-phenyl)-cyclobutanecarbonyl]-amino}-naphthalen-2-yloxy)-acetic acid] | – | – | – | 48
